From patent US8846951B2 (AbbVie Inc., priority 2009, dated 2014)
Like-named read-outs stand apart in the source and are kept apart here.

What was measured:
[1] = target: T1, 5HT2B receptors (Homo sapiens, UniProt P41595); experiment: Human 5-HT2B functional high throughput screening assay in CHO-K1 cells (calcium flux); type: cell-based; settings: for EC50: CHO-K1 cells, calcium flux
T1 construct: expressed in transfected cells; host or cells: CHO-K1 cells
Description: (§1) (iii) Human 5-HT2C and 5-HT2B Functional High Throughput Screening Assays in CHO-K1 Cells
(§2) CHO-K1 cells over-expressing 5HT2C or 5HT2B receptors were grown in 1272 cm^2 flasks to 70-80% confluency in UltraCHO media (Lonza, Walkersville, Md.) supplemented with 1% dialyzed fetal bovine serum (FBS), 250 μg/mL zeocin, 100 U/mL penicillin and 100 μg/mL streptomycin, and 400 μg/mL geneticin. The cells were dissociated from the flasks using 0.05% trypsin, resuspended in Recovery™ cell culture freezing medium (Invitrogen, Carlsbad, Calif.) and stored in liquid nitrogen until use. The calcium flux experiments were done using frozen cells. The cells were diluted in media containing 1% dialyzed FBS and 100 U/mL penicillin and 100 μg/mL streptomycin and plated into 384-well poly-D-Lysine coated plates (15,000 cells/well). Then the plates were incubated overnight in a cell incubator at 37° C., 5% CO2. On the next day, the growth media was replaced with media without FBS and further incubated overnight. On day three, the changes in intracellular Ca^2+ were determined using calcium sensitive fluorescent dye, Ca4 (MDS Analytical Technologies, Sunnyvale, Calif.) by loading 15 μL of diluted dye in Hank's Balanced Salt Solution and 20 mM Hepes buffer (pH 7.4) with final concentration of 2.5 mM probenecid into the cells containing media. Then the cells were incubated at room temperature for 60 minutes in dark.
(§3) After incubation, the cell plates were transferred to FLIPR™ (MDS) and their fluorescence measurements were read at an excitation wavelength of 480 nm and an emission wavelength of 530 nm at 25° C. The baseline fluorescence was measured for the first 10 seconds and then 15 μL of 4× concentration of serotonin/test compound was added to the cells. The fluorescence intensity was captured every second for the first 1 minute followed by every 5 seconds for an additional 2 minutes. The increase in fluorescent response by a test compound was normalized to the response of serotonin and used to determine agonist activity. The concentration response of compounds was done from a starting concentration of 10 μM, 1:10 dilution across 6 wells with a final dimethyl sulfoxide concentration of 0.2% and was fitted using a 4-parameter logistic equation. The concentration at which a compound exerts half its maximal effect was named as ‘effective concentration 50’ or ‘EC50’. Emax is the maximum functional response or efficacy expressed as a percentage relative to the effect of serotonin.

[2] = target: T2, 5HT2C receptors (Homo sapiens, UniProt P28335); experiment: Human 5-HT2C functional high throughput screening assay in CHO-K1 cells (calcium flux); type: cell-based; design: expressed in transfected cells; host or cells: CHO-K1 cells; settings: for EC50: CHO-K1 cells, calcium flux; for Emax: CHO-K1, 5-HT2C, maximum functional response as percentage relative to the effect of serotonin
T2 sequence (P28335 33-458): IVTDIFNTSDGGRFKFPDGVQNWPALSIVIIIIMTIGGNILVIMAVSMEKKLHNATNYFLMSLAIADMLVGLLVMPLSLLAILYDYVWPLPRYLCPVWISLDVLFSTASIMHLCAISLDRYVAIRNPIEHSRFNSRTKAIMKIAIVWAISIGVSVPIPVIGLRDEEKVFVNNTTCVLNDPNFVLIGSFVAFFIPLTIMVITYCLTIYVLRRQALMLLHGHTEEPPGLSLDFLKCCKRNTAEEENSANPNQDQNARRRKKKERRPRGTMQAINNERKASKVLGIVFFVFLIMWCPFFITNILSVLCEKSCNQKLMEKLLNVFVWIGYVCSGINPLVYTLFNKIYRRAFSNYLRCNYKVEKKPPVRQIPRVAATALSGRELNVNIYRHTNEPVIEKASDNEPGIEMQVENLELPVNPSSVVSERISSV
Description: as §1, §2, §3

[3] = 5-HT2B agonist activity, read-out: EC50
[4] = 5-HT2B, maximum functional response as percentage relative to the effect of serotonin
[5] = 5-HT2C agonist activity, read-out: EC50

T1 sequence (P41595 whole entry): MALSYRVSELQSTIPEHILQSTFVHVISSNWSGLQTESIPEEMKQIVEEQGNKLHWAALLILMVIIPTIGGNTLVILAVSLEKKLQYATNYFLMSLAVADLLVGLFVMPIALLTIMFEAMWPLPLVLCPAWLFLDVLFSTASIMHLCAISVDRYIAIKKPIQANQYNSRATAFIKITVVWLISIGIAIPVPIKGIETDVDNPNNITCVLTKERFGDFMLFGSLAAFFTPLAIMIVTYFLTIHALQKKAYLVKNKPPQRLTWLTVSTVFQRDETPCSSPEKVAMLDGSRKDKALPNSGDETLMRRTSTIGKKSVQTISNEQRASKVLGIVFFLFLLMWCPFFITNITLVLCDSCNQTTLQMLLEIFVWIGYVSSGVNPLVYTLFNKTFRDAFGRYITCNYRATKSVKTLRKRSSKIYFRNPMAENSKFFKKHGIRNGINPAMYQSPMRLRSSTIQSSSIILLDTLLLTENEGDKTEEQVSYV

Row | SMILES | EC50 [1, 3] | Emax [1, 4] | EC50 [2, 5] | Emax ([2]; read-out: Emax) | Emax ([1]; CHO-K1, 5-HT2B, maximum functional response as percentage relative to the effect of serotonin, read-out: Emax) | Emax ([1]; CHO-K1) | EC50 ([1]; EC50, 5-HT2B agonist activity) | Emax [2] | EC50 ([2]; EC50, 5-HT2C agonist activity)
1 | COC(=O)c1ccc2c(c1)C(=O)NC[C@@H]1CN(C)C[C@@H]21 (relative stereo) [Example 88, Trans-methyl 2-methyl-6-oxo-1,2,3,3a,4,5,6,10b-octahydrobenzo[e]pyrrolo[3,4-c]azepine-8-carboxylate] | > 10000 nM | inactive | 500 nM | > 120% | – | – | – | – | –
2 | CN1C[C@H]2CNC(=O)c3cccc(F)c3[C@@H]2C1 (relative stereo) [Example 89, Trans-10-fluoro-2-methyl-1,2,3,3a,4,5-hexahydrobenzo[e]pyrrolo[3,4-c]azepin-6(10bH)-one] | – | – | – | – | – | 33% | 560 nM | > 120% | 11.5 nM
3 | CN1C[C@H]2CNC(=O)c3c(F)cccc3[C@@H]2C1 (relative stereo) [Example 92, Trans-7-fluoro-2-methyl-1,2,3,3a,4,5-hexahydrobenzo[e]pyrrolo[3,4-c]azepin-6(10bH)-one] | – | – | – | – | – | 34% | 1350 nM | > 120% | 56 nM
4 | O=C1NC[C@@H]2CN(Cc3ccccc3)C[C@H]2c2c1sc1ccccc21 (relative stereo) [Example 97, Trans-2-benzyl-2,3,3a,4,5,11c-hexahydro[1]benzothieno[2,3-c]pyrrolo[3,4-e]azepin-6(1H)-one] | 4000 nM | – | 1000 nM | 110% | 40% | – | – | – | –
5 | O=C1NC[C@@H]2CNC[C@H]2c2c1sc1ccccc21 (relative stereo) [Example 99, Trans-2,3,3a,4,5,11c-hexahydro[1]benzothieno[2,3-e]pyrrolo[3,4-e]azepin-6(1H)-one] | – | – | – | – | – | 90% | 1000 nM | > 120% | 20 nM
6 | COc1cc(OC)c2c(c1)C(=O)NC[C@@H]1CNC[C@@H]21 (relative stereo) [Example 100, Trans-8,10-dimethoxy-1,2,3,3a,4,5-hexahydrobenzo[c]pyrrolo[3,4-e]azepin-6(10bH)-one] | – | – | – | – | – | 70% | 900 nM | > 120% | 3 nM
7 | O=C1NC[C@@H]2CNC[C@H]2c2cccc(OC(F)(F)F)c21 (relative stereo) [Example 103, Trans-7-(trifluoromethoxy)-1,2,3,3a,4,5-hexahydrobenzo[c]pyrrolo[3,4-e]azepin-6(10bH)-one] | – | – | – | – | – | 110% | 80 nM | > 120% | 0.7 nM
8 | O=C1NC[C@@H]2CNC[C@H]2c2sccc21 (relative stereo) [Example 104, Trans-6,6a,7,8,9,9a-hexahydropyrrolo[3,4-e]thieno[3,2-c]azepin-4(5H)-one] | > 10000 nM | inactive | 900 nM | – | – | – | – | > 120% | –
9 | Fc1ccc2c(c1)OCC[C@H]1CN(Cc3ccccc3)C[C@H]21 (relative stereo) [Example 107, Trans-2-benzyl-8-fluoro-2,3,3a,4,5,10b-hexahydro-1H-[1]benzoxepino[4,5-c]pyrrole] | – | – | – | – | – | 15% | 700 nM | 110% | 90 nM
10 | Fc1ccc2c(c1)OCC[C@H]1CNC[C@H]21 (relative stereo) [Example 109, Trans-8-fluoro-2,3,3a,4,5,10b-hexahydro-1H-[1]benzoxepino[4,5-c]pyrrole] | – | – | – | – | – | 55% | 300 nM | > 120% | 40 nM
11 | CN1C[C@H]2CNC(=O)c3c(OC(F)(F)F)cccc3[C@@H]2C1 (relative stereo) [Example 110, Trans-2-methyl-7-(trifluoromethoxy)-1,2,3,3a,4,5-hexahydrobenzo[c]pyrrolo[3,4-e]azepin-6(10bH)-one] | – | – | – | – | – | 15% | 900 nM | > 120% | –
12 | O=S1(=O)NC[C@@H]2CNC[C@H]2c2ccccc21 (relative stereo) [Example 111, Trans-2,3,3a,4,5,10b-hexahydro-1H-pyrrolo[3,4-d][1,2]benzothiazepine 6,6-dioxide] | > 10000 nM | – | 6000 nM | – | – | 20% | – | 100% | –

The next lines start with results.

Row | EC50 [1, 3] | Emax [1, 4] | EC50 [2, 5] | Emax ([2]; read-out: Emax) | Emax ([1]; CHO-K1, 5-HT2B, maximum functional response as percentage relative to the effect of serotonin, read-out: Emax) | SMILES | Emax ([1]; CHO-K1) | EC50 ([1]; EC50, 5-HT2B agonist activity) | Emax [2] | EC50 ([2]; EC50, 5-HT2C agonist activity)
13 | > 10000 nM | inactive | 10 nM | > 120% | – | COc1cc(OC)c2c(c1)C(=O)NC[C@@H]1CN(Cc3ccccc3)C[C@@H]21 (relative stereo) [Example 98, Trans-2-benzyl-8,10-dimethoxy-1,2,3,3a,4,5-hexahydrobenzo[c]pyrrolo[3,4-e]azepin-6(10bH)-one] | – | – | – | –
14 | > 10000 nM | inactive | 400 nM | > 120% | – | O=C1NC[C@@H]2CN(Cc3ccccc3)C[C@H]2c2sccc21 (relative stereo) [Example 101, Trans-8-benzyl-6,6a,7,8,9,9a-hexahydropyrrolo[3,4-e]thieno[3,2-c]azepin-4(5H)-one] | – | – | – | –
15 | > 10000 nM | inactive | 100 nM | > 120% | – | O=C1NC[C@@H]2CN(Cc3ccccc3)C[C@H]2c2cccc(OC(F)(F)F)c21 (relative stereo) [Example 102, Trans-2-benzyl-7-(trifluoromethoxy)-1,2,3,3a,4,5-hexahydrobenzo[c]pyrrolo[3,4-e]azepin-6(10bH)-one] | – | – | – | –
16 | > 10000 nM | inactive | 200 nM | 110% | – | c1ccc(-c2ccc3c(c2)OCC[C@H]2CNC[C@H]32)cc1 (relative stereo) [Example 108, Trans-8-phenyl-2,3,3a,4,5,10b-hexahydro-1H-[1]benzoxepino[4,5-c]pyrrole] | – | – | – | –
17 | > 10000 nM | inactive | 5000 nM | 80% | – | CN1C[C@H]2CNC(=O)c3c(-c4ccccc4)cccc3[C@@H]2C1 (relative stereo) [Example 114, Trans-2-methyl-7-phenyl-1,2,3,3a,4,5-hexahydrobenzo[c]pyrrolo[3,4-e]azepin-6(10bH)-one] | – | – | – | –
18 | > 10000 nM | inactive | 200 nM | > 120% | – | O=C1NC[C@@H]2CN(Cc3ccccc3)C[C@H]2c2ccc(O)cc21 (relative stereo) [Example 117, Trans-2-benzyl-8-hydroxy-1,2,3,3a,4,5-hexahydrobenzo[e]pyrrolo[3,4-c]azepin-6(10bH)-one] | – | – | – | –
19 | > 10000 nM | inactive | 100 nM | > 120% | – | O=C1NC[C@@H]2CN(Cc3ccccc3)C[C@H]2c2ccc(OCCc3cccc(F)c3)cc21 (relative stereo) [Example 119, Trans-2-benzyl-8-(3-fluorophenethoxy)-1,2,3,3a,4,5-hexahydrobenzo[e]pyrrolo[3,4-c]azepin-6(10bH)-one] | – | – | – | –
20 | > 10000 nM | inactive | 200 nM | 120% | – | O=C1NC[C@@H]2CN(Cc3ccccc3)C[C@H]2c2ccc(OCCc3ccccc3)cc21 (relative stereo) [Example 121, Trans-2-benzyl-8-phenethoxy-1,2,3,3a,4,5-hexahydrobenzo[e]pyrrolo[3,4-c]azepin-6(10bH)-one] | – | – | – | –
21 | > 10000 nM | inactive | 6000 nM | 100% | – | CN1C[C@H]2CNC(=O)c3cc(C(=O)N4CCCCC4)ccc3[C@@H]2C1 (relative stereo) [Example 122, Trans-2-methyl-8-(piperidine-1-carbonyl)-1,2,3,3a,4,5-hexahydrobenzo[e]pyrrolo[3,4-c]azepin-6(10bH)-one] | – | – | – | –
